In US20120283302A1, “SCCA-1 PRODUCTION INHIBITOR HAVING A CARBOXAMIDE DERIVATIVE AND/OR A SALT THEREOF AS AN ACTIVE INGREDIENT” (SHISEIDO COMPANY, LTD, priority 2009, published 2012):

What was measured:
SCAA-1 = conditions: known from Japanese Patent Application No. 2008-903571; cited from earlier work
SCAA-2 = conditions: known from Japanese Patent Application No. 2008-903571; cited from earlier work
Human SCCA1 = experiment: SCCA-1 expression-inhibiting effect in cultured human keratinocytes (quantitative PCR, G3PDH internal standard); assay type: cell-based; conditions: 24 hours after addition at different concentrations, vs no-drug negative control, FIG. 1-3
Protocol: SCCA-1 expression-inhibiting effects of carboxyamide derivatives in cell line:
Human keratinocytes were cultured, and carboxyamide derivatives at different concentrations were added at 60-70% confluency. The carboxyamide derivatives used were the following:
After 24 hours, the RNA was obtained, and then it was subjected to a quantitative PCR analysis by ABI PRISM 7900HT Sequence Detector System (Taqman PE) (Applied Biosystems) with using a primer/probe combination shown below, thereby the amount of SCCA gene expression was measured (using G3PDH as the internal standard). • Human SCCA1 • Forward primer: 5′-GTGCTATCTGGAGTCCT-3′ (SEQ ID NO: 1) • Reverse primer: 5′-CTGTTGTTGCCAGCAA-3′ (SEQ ID NO: 2) • Probe: 5′-CATCACCTACTTCAACT-3′ (SEQ ID NO: 3) • Human G3PDH • Forward primer: 5′-GAAGGTGAAGGTCGGAGTC-3′ (SEQ ID NO: 4) • Reverse primer: 5′-[…]-3′ (SEQ ID NO: 5) • Probe: 5′-[…]-3′ (SEQ ID NO: 6)

## O=C(O)CCN1CCCCC1 [1-piperidinepropionic acid (1-PP), 1-piperidinepropionic acid]
SCAA-1
  gene expression-inhibiting effect on SCAA-1: gene expression-inhibiting effect
SCAA-2
  gene expression-inhibiting effect on SCAA-2: gene expression-inhibiting effect

## O=C1CCCN1CCO [1-(2-hydroxyethyl)-2-pyrrolidone]
Human SCCA1
  SCCA-1 gene expression: significant dose-dependent reduction in SCCA-1 gene expression

## O=C1NCCN1CCO [1-(2-hydroxyethyl)-2-imidazolidinone]
Human SCCA1
  SCCA-1 gene expression: significant dose-dependent reduction in SCCA-1 gene expression

## NC(=O)NC1NC(=O)NC1=O (stereo not shown) [allantoin]
Human SCCA1
  SCCA-1 gene expression: significant dose-dependent reduction in SCCA-1 gene expression

## O=C1NCCN1 [ethyleneurea]
Human SCCA1
  SCCA-1 gene expression: significant dose-dependent reduction in SCCA-1 gene expression

## NC(N)=O [urea]
Human SCCA1
  SCCA-1 gene expression: significant dose-dependent reduction in SCCA-1 gene expression
